#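 Test compounds were applied to cells in 96-well plates for 48 hours at 5 doses. GI50: concentration for 50% inhibition of growth.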 Active and inactive are the calls of the source. Rule as the data show it: active = GI50 up to about 1.1 µM and inactive = higher.
# Tests used:
# Assay in all cases: NCI tumour cell line growth inhibition, 48 h
# TK-10 = system: TK-10
# HL-60 = system: HL-60
# RPMI-8226 = system: RPMI-8226
# NCI-H522 = system: NCI-H522
# MOLT-4 = system: MOLT-4
# PC-3 = system: PC-3
# OVCAR-5 = system: OVCAR-5
# OVCAR-8 = system: OVCAR-8
# ACHN = system: ACHN
# HCT-116 = system: HCT-116
# SF-539 = system: SF-539
# U-251 = system: U-251
# SNB-75 = system: SNB-75
# OVCAR-4 = system: OVCAR-4
# HT-29 = system: HT-29
# Malme-3M = system: Malme-3M
# SW-620 = system: SW-620
# M14 = system: M14
# UO-31 = system: UO-31
# SK-MEL-2 = system: SK-MEL-2
Structure (SMILES),GI50 (TK-10),GI50 (HL-60),GI50 (RPMI-8226),GI50 (NCI-H522),GI50 (MOLT-4),GI50 (PC-3),GI50 (OVCAR-5),GI50 (OVCAR-8),GI50 (ACHN),GI50 (HCT-116),GI50 (SF-539),GI50 (U-251),GI50 (SNB-75),GI50 (OVCAR-4),GI50 (HT-29),GI50 (Malme-3M),GI50 (SW-620),GI50 (M14),GI50 (UO-31),GI50 (SK-MEL-2)
O=C1NC(=O)C(Cc2ccccc2)(c2cccnc2)N1 (stereo not given),> 100 µM (inactive),> 100 µM (inactive),> 100 µM (inactive),> 100 µM (inactive),> 100 µM (inactive),> 100 µM (inactive),> 100 µM (inactive),> 100 µM (inactive),> 100 µM (inactive),> 100 µM (inactive),> 100 µM (inactive),> 100 µM (inactive),> 100 µM (inactive),> 100 µM (inactive),> 100 µM (inactive),> 100 µM (inactive),> 100 µM (inactive),> 100 µM (inactive),> 100 µM (inactive),> 100 µM (inactive)
CCN(Cc1cc(Cl)cc(C)c1O)Cc1c(O)ccc2ccccc12,17.1 µM (inactive),12 µM (inactive),17.4 µM (inactive),11.2 µM (inactive),5.36 µM (inactive),15.5 µM (inactive),17.6 µM (inactive),17.7 µM (inactive),17.3 µM (inactive),16.7 µM (inactive),13.3 µM (inactive),17.1 µM (inactive),11.7 µM (inactive),17.1 µM (inactive),12.9 µM (inactive),14.5 µM (inactive),25.4 µM (inactive),18.4 µM (inactive),16.2 µM (inactive),16.4 µM (inactive)
C[N+](C)(C)C(C1=CCCC1=O)c1ccccc1 (stereo not given),48.5 µM (inactive),25.8 µM (inactive),15.8 µM (inactive),18.7 µM (inactive),24.1 µM (inactive),35.5 µM (inactive),> 100 µM (inactive),25 µM (inactive),25.4 µM (inactive),16.4 µM (inactive),54.5 µM (inactive),20.6 µM (inactive),52.8 µM (inactive),80.7 µM (inactive),23.5 µM (inactive),19.2 µM (inactive),21.5 µM (inactive),> 100 µM (inactive),> 100 µM (inactive),84.9 µM (inactive)
C(=N\Cc1ccccc1)/c1ccccc1-c1ccccc1/C=N/Cc1ccccc1,> 10 µM (inactive),2.36 µM (inactive),3.01 µM (inactive),> 10 µM (inactive),3.52 µM (inactive),> 10 µM (inactive),> 10 µM (inactive),> 10 µM (inactive),> 8.53 µM (inactive),2.86 µM (inactive),> 10 µM (inactive),6.5 µM (inactive),4.59 µM (inactive),> 7.96 µM (inactive),> 10 µM (inactive),> 9.62 µM (inactive),> 10 µM (inactive),9.86 µM (inactive),> 10 µM (inactive),> 10 µM (inactive)
N#Cc1ccccc1-c1nc2c3c(c(N)ccc3n1)C(=O)c1ccccc1-2,21.4 µM (inactive),20 µM (inactive),14.3 µM (inactive),32 µM (inactive),32.3 µM (inactive),23.7 µM (inactive),34.8 µM (inactive),33.5 µM (inactive),22.2 µM (inactive),29.7 µM (inactive),37.3 µM (inactive),34.6 µM (inactive),50.2 µM (inactive),71 µM (inactive),43.4 µM (inactive),> 100 µM (inactive),31 µM (inactive),23.1 µM (inactive),8.85 µM (inactive),47 µM (inactive)
CCOC(=O)Cc1csc(N/C=C2/C(=O)Oc3ccccc3C2=O)n1,24.7 µM (inactive),0.083 µM (active),18.6 µM (inactive),13.5 µM (inactive),10.2 µM (inactive),32.2 µM (inactive),37.4 µM (inactive),13.1 µM (inactive),12 µM (inactive),27.6 µM (inactive),16.9 µM (inactive),20 µM (inactive),10.9 µM (inactive),31.7 µM (inactive),39.1 µM (inactive),1.79 µM (inactive),21.6 µM (inactive),23.8 µM (inactive),14.9 µM (inactive),13.6 µM (inactive)
C=CCSS/C=C/C[S+]([O-])CC=C (stereo not given) [AJOENE],> 85.7 µM (inactive),5.05 µM (inactive),10.4 µM (inactive),16.7 µM (inactive),3.95 µM (inactive),39.1 µM (inactive),36.6 µM (inactive),18.5 µM (inactive),51.1 µM (inactive),13.1 µM (inactive),25 µM (inactive),60 µM (inactive),70 µM (inactive),> 54.8 µM (inactive),29.9 µM (inactive),49.2 µM (inactive),7.8 µM (inactive),20.9 µM (inactive),37.8 µM (inactive),> 52.2 µM (inactive)
C[C@@H]1C[C@@H](O)[C@]2(O)O[C@@H]3C[C@@]4(C=O)[C@@H](CC[C@@H]5[C@@H]4CC[C@]4(C)[C@@H](C6=CC(=O)OC6)CC[C@]54O)C[C@H]3O[C@@H]2O1 [CALACTIN],0.00906 µM (active),0.0129 µM (active),0.0281 µM (active),0.00138 µM (active),0.00188 µM (active),0.0403 µM (active),0.0237 µM (active),0.0108 µM (active),0.00283 µM (active),0.0102 µM (active),0.00581 µM (active),0.019 µM (active),0.0251 µM (active),0.0222 µM (active),0.021 µM (active),0.0119 µM (active),0.0133 µM (active),0.0222 µM (active),0.0171 µM (active),0.0114 µM (active)
CC1=C(CO)C2=C(C)C3(CC3)[C@@](C)(O)C(=O)C2=C1 [IROFULVEN],0.279 µM (active),0.237 µM (active),34.1 µM (inactive),0.146 µM (active),0.785 µM (active),0.267 µM (active),0.174 µM (active),0.219 µM (active),0.262 µM (active),0.21 µM (active),0.172 µM (active),0.286 µM (active),0.191 µM (active),0.237 µM (active),0.234 µM (active),0.218 µM (active),0.614 µM (active),0.258 µM (active),0.19 µM (active),0.196 µM (active)

# Source: ChEMBL document CHEMBL1201862, “PubChem BioAssay data set” (2004)
